Test results as given in patent US7078499B2, “Nucleotide analogues comprising a reporter moiety and a polymerase enzyme blocking moiety” (GE Healthcare UK Limited, priority 2000, dated 2006).

Columns and labels:
Assay type in all cases: biochemical
delta Tts DNA polymerase = test: Thermostable polymerase under reverse transcription conditions, delta Tts; set-up: key to result of incorporation (termination / further chain extension): T: Incorporation results in termination; E: Incorporation permits further chain extension; T/E: Predominant product is primer extended by one base, but evidence of some further extension also observed; key to primer extended by at least one base within assay time (grade): −: No extension within assay time; +/−: up to 25% of primer extended by at least one base within assay time; +: up to 50% of primer extended by at least one base within assay time; ++: up to 75% of primer extended by at least one base within assay time; +++: essentially all primer extended by at least one base within assay time; conditions: RNA template, 2.5 mM Manganese ions; for primer extended by at least one base within assay time (grade): Tth reaction buffer
Method: (§1) DNA polymerase assays were performed using Sequence 1 as primer and Sequence 2 as template. • Sequence 1 5′[Cy3]TAACTCATTAACAGGATC 3′ • Sequence 2 5′AT TCGCGGTATTCTGGTATGAAGCTTTTAGATCCTGTTAATGAGTTA GTA3′
(§2) The template (Sequence 2) was designed such that the base (underlined) immediately adjacent to the 3′ end of the hybridised primer is complementary to the nucleotide test compound. Nucleotide test compounds were compounds (6) (4′-C-(glycylaminomethyl)thymidine triphosphate), (8) (4′-C-(N-trifluoroacetyaminomethyl)thymidine triphosphate) and (9) (4′-C-(aminomethyl)thymidine triphosphate) as described above.
(§3) Primer extension reactions were performed using the above primers in the presence of 40 to 80 μM of nucleotide triphosphates. Positive control reactions contained all four native nucleotide triphosphates. For the other reactions the TTP was replaced with either a 2:1 ratio of […] for the terminator control, or entirely by the test compound The enzymes were used at a final concentration of 0.175 units/μl and a magnesium ion concentration of 2.5 mM in buffers supplied by the manufacturer. The primer and template concentrations were 0.5 pmol/μl and 2 pmol/μl respectively.
(§4) Extension reactions with thermophilic enzymes were performed by initially denaturing the fully assembled reactions at 70° C. for 5 min. followed by 45° C. for 20–40 minutes. The following enzymes were used: Taq DNA polymerase (Taq); Thermosequenase (TS); Thermosequenase II (TSII); Thermosequenase E (TSE), Tfl DNA polymerase (Tfl); Tth DNA polymerase (Tth), deltaTts DNA polymerase (deltaTts), deltaTts D DNA polymerase (dettaTTSD) (all from APBiotech); Pfu DNA polymerase (Pfu) (Stratagene Ltd); Vent™ DNA polymerase (Vent) (New England Biolabs).
(§5) Reverse transcriptase reactions were performed essentially as described above for thermophilic and mesophilic enzymes. The template for these reactions was the RNA equivalent of sequence 2. All the thermophilic enzymes were assayed in Tth reaction buffer (Cambio Ltd, Cambridge UK) containing 2.5 mM Manganese ions. The following enzymes were used: Thermosequenase (TS1); Thermosequenase II (TSII); delta Tts DNA polymerase (deltaTts); delta Tts D DNA polymerase (deltaTtsD) (all from APBiotech); Retrotherm reverse transcriptase (Retroth) (Cambio Ltd); Tth DNA polymerase (Tth) (Cambio Ltd.).
(§6) The reactions were stopped by adding a 0.5 volume aliquot of 80% formamide containing 0.1% (w/v) bromophenol blue and 0.1% (w/v) cresol blue. The reaction products were separated by denaturing gel electrophoresis at a constant power of 45 W on 16% polyacrylamide gels containing 50% urea.
(§7) Gels were scanned for Cy3 fluorescence on a Molecular Dynamics Fluorimager and the data analysed using Molecular Dynamics ImageQuant 5 software.
(§8) The incorporation of a test nucleotide triphosphate results in the appearance on a polyacrylamide gel of a single band corresponding to a single base extension product. If, however, the enzyme adds additional bases then further bands would be observed that corresponded to either the full-length product or positions of other complementary bases in the template.

Thermosequenase E = test: Thermostable DNA polymerase primer extension, TSE; set-up: key to result of incorporation (termination / further chain extension): T: Incorporation results in termination; E: Incorporation permits further chain extension; T/E: Predominant product is primer extended by one base, but evidence of some further extension also observed; conditions: DNA template, 45° C. for 20–40 minutes; for primer extended by at least one base within assay time (grade): TTP replaced entirely by test compound
Method: as §1, §2, §3, §4, §6, §7, §8

AMV RT = test: Mesophilic reverse transcriptase reaction, AMV RT; set-up: key: −: No extension within assay time; +/−: up to 25% of primer extended by at least one base within assay time; +: up to 50% of primer extended by at least one base within assay time; ++: up to 75% of primer extended by at least one base within assay time; +++: essentially all primer extended by at least one base within assay time; conditions: RNA template, final enzyme concentration of 4 units/μl
Method: as §1, §2, §3
Extension reactions preformed with mesophilic polymerases were carried out by mixing all the components of the reaction except the enzyme and heating to 70° C. for 5 min. After the reactions had cooled to room temperature 0.175 units of the enzyme were added and the reactions heated to 37° C. for 20–40 minutes. The following enzymes were used: T7 DNA polymerase (T7); Sequenase 2™ (Seq); Klenow fragment of DNA polymerase 1 (Klen); phi-29 DNA polymerase (Phi-29); T4 DNA polymerase (T4) (all from AP Biotech) and Bst DNA polymerase (Bst) (Cambio Ltd).
Reverse transcriptase reactions were performed essentially as described above for thermophilic and mesophilic enzymes. The template for these reactions was the RNA equivalent of sequence 2. […]
Gels were scanned for Cy3 fluorescence on a Molecular Dynamics Fluorimager and the data analysed using Molecular Dynamics ImageQuant 5 software. […]

Tth DNA polymerase = target: T1, Tth DNA polymerase (Thermus thermophilus, UniProt P52028); test: Thermostable polymerase under reverse transcription conditions, Tth; set-up: key to result of incorporation (termination / further chain extension): T: Incorporation results in termination; E: Incorporation permits further chain extension; T/E: Predominant product is primer extended by one base, but evidence of some further extension also observed; key to primer extended by at least one base within assay time (grade): −: No extension within assay time; +/−: up to 25% of primer extended by at least one base within assay time; +: up to 50% of primer extended by at least one base within assay time; ++: up to 75% of primer extended by at least one base within assay time; +++: essentially all primer extended by at least one base within assay time; conditions: RNA template, 2.5 mM Manganese ions; for primer extended by at least one base within assay time (grade): Tth reaction buffer
T1 construct: purchased APBiotech
T1 sequence (P52028 whole entry): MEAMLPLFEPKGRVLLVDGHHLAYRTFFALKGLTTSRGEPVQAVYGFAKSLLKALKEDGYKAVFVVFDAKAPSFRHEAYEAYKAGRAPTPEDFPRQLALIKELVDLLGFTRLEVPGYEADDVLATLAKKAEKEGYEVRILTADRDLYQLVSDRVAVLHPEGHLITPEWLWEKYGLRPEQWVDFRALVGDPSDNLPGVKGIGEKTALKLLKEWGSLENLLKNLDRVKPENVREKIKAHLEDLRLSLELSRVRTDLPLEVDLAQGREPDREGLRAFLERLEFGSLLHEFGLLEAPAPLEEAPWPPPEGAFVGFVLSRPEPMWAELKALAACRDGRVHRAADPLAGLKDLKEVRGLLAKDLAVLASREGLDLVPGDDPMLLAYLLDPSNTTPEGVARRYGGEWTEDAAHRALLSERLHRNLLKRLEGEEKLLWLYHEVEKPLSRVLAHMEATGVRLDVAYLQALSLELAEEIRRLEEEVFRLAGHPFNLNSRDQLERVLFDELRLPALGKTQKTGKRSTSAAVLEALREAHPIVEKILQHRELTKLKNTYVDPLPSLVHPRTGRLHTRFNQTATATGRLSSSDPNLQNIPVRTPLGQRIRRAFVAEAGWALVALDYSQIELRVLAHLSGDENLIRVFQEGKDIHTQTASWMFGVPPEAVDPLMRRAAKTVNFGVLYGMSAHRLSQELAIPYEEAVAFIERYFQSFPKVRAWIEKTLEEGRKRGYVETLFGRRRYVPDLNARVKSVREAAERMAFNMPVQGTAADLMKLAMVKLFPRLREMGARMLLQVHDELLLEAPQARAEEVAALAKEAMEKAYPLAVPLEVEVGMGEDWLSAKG
Method: as §1, §2, §3, §4, §5, §6, §7, §8

| Compound | result of incorporation (termination / further chain extension) (delta Tts DNA polymerase) | primer extended by at least one base within assay time (grade) (delta Tts DNA polymerase) | result of incorporation (termination / further chain extension) (Thermosequenase E) | primer extended by at least one base within assay time (grade) (Thermosequenase E) | primer extended by at least one base within assay time (grade) (AMV RT) | result of incorporation (termination / further chain extension) (Tth DNA polymerase) | primer extended by at least one base within assay time (grade) (Tth DNA polymerase) |
| --- | --- | --- | --- | --- | --- | --- | --- |
| 4′-C-(Glycylaminomethyl)thymidine triphosphate [compound (6)] | T | +++ | T | ++ (up to 75% of primer extended by at least one base within assay time) | − | T | +++ |
| Cc1cn([C@H]2C[C@H](O)[C@@](CNC(=O)C(F)(F)F)(COP(=O)(O)OP(=O)(O)OP(=O)(O)O)O2)c(=O)[nH]c1=O [compound (8), 4′-C-(N-trifluoroacetylaminomethyl)thymidine triphosphate] | T | +++ | T | ++ (up to 75% of primer extended by at least one base within assay time) | − | T | +++ |
| 4′-C-(Aminomethyl)thymidine triphosphate [compound (9)] | T | +++ | T | ++ (up to 75% of primer extended by at least one base within assay time) | − | T | +++ |
